# Laboratory results taken from paper PMC6311893, “Computational prediction of plasma protein binding of cyclic peptides from small molecule experimental data using sparse modeling techniques” (BMC Bioinformatics, 2018).
# Positions of bridges follow the written chain, without caps; N, C: chain ends. Residues, ends and D or L forms follow the SMILES beside them.
# Assays:
# in vitro = in vitro ADME; conditions: human, plasma, Exp. PPB (fb*)
# Description: (§1) As the number of publicly available data of cyclic peptide drugs is small compared to that of small molecule, we additionally designed and experimented with 16 cyclic peptides composed exclusively of natural amino acids. First, linear peptides were synthesized. Then, circularization was achieved by making a disulfide bond between N-terminal and C-terminal cysteine residues and confirmed by TOF/MS and HPLC analyses. Human PPB values fb were determined by the equilibrium dialysis method. Frozen human plasma was thawed immediately at room temperature. Then, the plasma was centrifuged at 3220 g for 10 min to remove clots and the supernatant was collected into a fresh tube. The working solutions of test compounds were prepared in DMSO at a concentration of 200 μM. Then, 3 μL of the working solution was removed for mixing with 597 μL of human plasma to achieve a final concentration of 1 μM (0.5% DMSO). The plasma samples were vortexed thoroughly. The dialysis membranes (HTD 96a/b Dialysis Membrane Strips MWCO 12-14 K, Cat. #1101, Batch# 1141 (12–17)) were soaked in ultrapure water for 60 min to separate the strips, then in 20% ethanol for 20 min, and finally in the dialysis buffer (100 mM sodium phosphate and 150 mM NaCl) for 20 min. The dialysis apparatus was assembled according to the manufacturer’s instructions. Each cell was filled with the spiked plasma sample and dialyzed against equal volume of the dialysis buffer. The assay was performed in duplicate. The dialysis plate was sealed and incubated in an incubator at 37 °C with 5% CO2 at 100 rpm for 6 h. At the end of incubation, the seal was removed and 50 μL of samples from both buffer and plasma chambers were transferred to wells of a 96-well plate. 50 μL of blank plasma was added to each buffer sample and an equal volume of phosphate buffered saline was supplemented to the collected plasma sample. […] Samples in the plate were vortexed for 5 min and centrifuged at 3220 g for 30 min at 4 °C. Then, the supernatant was transferred to a new 96-well plate with 100 μL or 200 μL water (depending on the LC-MS signal response and peak shape) for LC-MS/MS analysis.
# human plasma = assay: in vitro; assay type: in vitro ADME; conditions: 6 h, 1 μM
# Description: as §1
Structure (SMILES),"fraction unbound at 6 h, 1 μM (in vitro)",Exp. PPB (fb*) (human plasma)
CC(C)[C@@H]1NC(=O)[C@H](CCCNC(=N)N)NC(=O)[C@@H]2CCCN2C(=O)[C@H](CCCNC(=N)N)NC(=O)[C@H](Cc2c[nH]c3ccccc23)NC(=O)[C@@H](N)CSSC[C@@H](C(=O)O)NC(=O)[C@H](CCCNC(=N)N)NC(=O)[C@H](C)NC1=O [Pep.5] (H-CWRPRVARC-OH; disulfide 1-9; N-terminus and C-terminus assumed),1,–
N[C@H]1CSSC[C@@H](C(=O)O)NC(=O)[C@H](Cc2ccc(O)cc2)NC(=O)[C@H](Cc2ccc(O)cc2)NC(=O)[C@H](Cc2ccc(O)cc2)NC(=O)[C@H](Cc2ccc(O)cc2)NC(=O)[C@H](Cc2ccc(O)cc2)NC(=O)[C@H](Cc2ccc(O)cc2)NC(=O)[C@H](Cc2ccc(O)cc2)NC1=O [Pep.8] (H-CYYYYYYYC-OH; disulfide 1-9; N-terminus and C-terminus assumed),0.145,–
CC[C@H](C)[C@@H]1NC(=O)[C@H](Cc2ccc(O)cc2)NC(=O)[C@@H](N)CSSC[C@@H](C(=O)O)NC(=O)CNC(=O)[C@H](CC(C)C)NC(=O)[C@@H]2CCCN2C(=O)[C@H](CC(N)=O)NC(=O)[C@H](CCC(N)=O)NC1=O [Pep.2] (H-CYIQNPLGC-OH; disulfide 1-9; N-terminus and C-terminus assumed),0.995,–
CC(C)C[C@@H]1NC(=O)[C@H](CC(C)C)NC(=O)[C@H](CCCCN)NC(=O)[C@@H](N)CSSC[C@@H](C(=O)O)NC(=O)[C@H]([C@@H](C)O)NC(=O)[C@H](CCCCN)NC(=O)[C@H](CCCCN)NC1=O [Pep.7] (H-CKLLKKTC-OH; disulfide 1-8; N-terminus and C-terminus assumed),1,–
N=C(N)NCCC[C@@H]1NC(=O)[C@@H]2CCCN2C(=O)[C@H](CC(N)=O)NC(=O)[C@H](CCC(N)=O)NC(=O)[C@H](Cc2ccccc2)NC(=O)[C@H](Cc2ccc(O)cc2)NC(=O)[C@@H](N)CSSC[C@@H](C(=O)O)NC(=O)CNC1=O [Pep.1] (H-CYFQNPRGC-OH; disulfide 1-9),0.76,0.242
C[C@@H](O)[C@@H]1NC(=O)[C@H](CCCCN)NC(=O)[C@H](Cc2c[nH]c3ccccc23)NC(=O)[C@H](Cc2ccccc2)NC(=O)[C@H](Cc2ccccc2)NC(=O)[C@@H](N)CSSC[C@@H](C(=O)O)NC(=O)[C@H]([C@@H](C)O)NC1=O [Pep.6] (H-CFFWKTTC-OH; disulfide 1-8; N-terminus and C-terminus assumed),0.737,–
NCCCC[C@@H]1NC(=O)[C@H](Cc2c[nH]c3ccccc23)NC(=O)[C@H](Cc2ccccc2)NC(=O)[C@@H]2CCCN2C(=O)[C@H](Cc2ccccc2)NC(=O)[C@@H](N)CSSC[C@@H](C(=O)O)NC(=O)[C@H](Cc2ccc(O)cc2)NC1=O [Pep.4] (H-CFPFWKYC-OH; disulfide 1-8; N-terminus and C-terminus assumed),0.384,–
CC(C)[C@@H]1NC(=O)[C@H](CCCCN)NC(=O)[C@H](Cc2c[nH]c3ccccc23)NC(=O)[C@H](C)NC(=O)[C@@H](N)CSSC[C@@H](C(=O)O)NC(=O)[C@H]([C@@H](C)O)NC1=O [Pep.3] (H-CAWKVTC-OH; disulfide 1-7; N-terminus and C-terminus assumed),1,–

# Now from value to compound:
"fraction unbound at 6 h, 1 μM (in vitro)",Exp. PPB (fb*) (human plasma),Structure (SMILES)
0.633,–,CC(C)[C@@H]1NC(=O)[C@H](Cc2c[nH]c3ccccc23)NC(=O)[C@@H](N)CSSC[C@@H](C(=O)O)NC(=O)[C@H](CCC(=O)O)NC(=O)[C@H](Cc2ccccc2)NC(=O)[C@H](CCC(N)=O)NC(=O)[C@@H]2CCCN2C(=O)[C@H](Cc2c[nH]cn2)NC1=O [Pep.10] (H-CWVHPQFEC-OH; disulfide 1-9; N-terminus and C-terminus assumed)
1,–,CC(C)C[C@@H]1NC(=O)CNC(=O)[C@H](C)NC(=O)[C@@H](N)CSSC[C@@H](C(=O)O)NC(=O)[C@H](C)NC(=O)[C@H](C)NC(=O)[C@H](CC(C)C)NC(=O)[C@H](C(C)C)NC1=O [Pep.9] (H-CAGLVLAAC-OH; disulfide 1-9; N-terminus and C-terminus assumed)
1,–,NC(=O)CC[C@@H]1NC(=O)[C@H](Cc2c[nH]c3ccccc23)NC(=O)[C@@H]2CCCN2C(=O)[C@H](CCC(N)=O)NC(=O)[C@H](CC(N)=O)NC(=O)[C@@H](N)CSSC[C@@H](C(=O)O)NC1=O [Pep.11] (H-CNQPWQC-OH; disulfide 1-7; N-terminus and C-terminus assumed)
0.847,–,CC(C)[C@@H]1NC(=O)[C@H](C)NC(=O)[C@H](CO)NC(=O)[C@H](Cc2ccc(O)cc2)NC(=O)[C@H](C(C)C)NC(=O)[C@H](Cc2ccccc2)NC(=O)[C@@H](N)CSSC[C@@H](C(=O)O)NC1=O [Pep.15] (H-CFVYSAVC-OH; disulfide 1-8; N-terminus and C-terminus assumed)
0.849,–,CC[C@H](C)[C@@H]1NC(=O)[C@H](CCCNC(=N)N)NC(=O)[C@@H](N)CSSC[C@@H](C(=O)O)NC(=O)[C@H](Cc2ccc(O)cc2)NC(=O)[C@H](CCCNC(=N)N)NC(=O)[C@H](CCCCN)NC1=O [Pep.16] (H-CRIKRYC-OH; disulfide 1-7; N-terminus and C-terminus assumed)
0.651,–,CC(C)C[C@@H]1NC(=O)[C@H](Cc2ccc(O)cc2)NC(=O)[C@@H](N)CSSC[C@@H](C(=O)O)NC(=O)CNC(=O)[C@H](Cc2c[nH]cn2)NC(=O)[C@H](Cc2ccc(O)cc2)NC(=O)[C@H](CCC(=O)O)NC(=O)[C@H](C)NC1=O [Pep.13] (H-CYLAEYHGC-OH; disulfide 1-9; N-terminus and C-terminus assumed)
0.2,–,CC(C)C[C@@H]1NC(=O)[C@H](Cc2c[nH]c3ccccc23)NC(=O)[C@H](CC(=O)O)NC(=O)[C@H](CC(=O)O)NC(=O)[C@H](Cc2ccccc2)NC(=O)[C@H](CO)NC(=O)[C@@H](N)CSSC[C@@H](C(=O)O)NC(=O)[C@H](C)NC1=O [Pep.12] (H-CSFDDWLAC-OH; disulfide 1-9; N-terminus and C-terminus assumed)
0.926,–,C[C@@H]1NC(=O)[C@H](Cc2c[nH]c3ccccc23)NC(=O)[C@H](C)NC(=O)[C@@H]2CCCN2C(=O)[C@H](C)NC(=O)[C@@H](N)CSSC[C@@H](C(=O)O)NC(=O)CNC(=O)[C@H](Cc2c[nH]cn2)NC1=O [Pep.14] (H-CAPAWAHGC-OH; disulfide 1-9; N-terminus and C-terminus assumed)
